How the values were obtained:
[1] = Particle size of nucleic acid lipid particles (Luc2-siRNA); format: physicochemical; details: compound/DSPC/cholesterol/DMG-PEG2000 50/10/38.5/1.5
Procedure, shortened: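 Lipid particles formed from oil phase (test lipid/DSPC/cholesterol/DMG-PEG2000, 50/10/38.5/1.5 molar, 20 mmol/L total in ethanol) micromixed 1:3 with Luc2-siRNA in pH 4 acetate buffer (19.7 μmol/L); siRNA/lipid 339 mol/mol, PBS-diluted and dialyzed. Size measured on ELS-Z2 dynamic light scattering.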

[2] = Encapsulation rate of siRNA in nucleic acid lipid particles (Luc2-siRNA); format: physicochemical; details: compound/DSPC/cholesterol/DMG-PEG2000 50/10/38.5/1.5
Procedure, shortened: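 Encapsulation rate was calculated as (total − outer-phase siRNA)/total ×100. Total siRNA was quantified spectrophotometrically after lipid-dissolving ethanol precipitation, and unencapsulated siRNA by RiboGreen in TE (ex 485/em 535 nm). The particles were test lipid/DSPC/cholesterol/DMG-PEG2000 at 50/10/38.5/1.5, formed by microfluidic mixing with Luc2-siRNA at pH 4 and dialyzed against PBS.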

[3] = test system: DMS273 cells constantly expressing Luc; assay: Target reporter protein (Luc) knockdown in cell, reporter protein assay; format: cell-based; details: Homo sapiens, DMS-273; Luc2-siRNA lipid particles using the compound; siRNA 0.1 to 100 nmol/L; concentration at which Luc expression is knocked down to 50%; read-out: IC50
Procedure, shortened: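 Nucleic acid lipid particles added at final 0.1 to 100 nmol/L to DMS273 human SCLC cells stably expressing Luc2, 24 hr exposure then 24 hr further culture after medium change. Luc quantified by Steady Glo luminescence after viable cell count; knockdown efficiency calculated and IC50 taken as concentration giving 50% Luc reduction.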

[4] = test system: Factor VII (FVII) protein; assay: Measurement of Factor VII (FVII) protein in mouse plasma after FVII-siRNA lipid particles; format: in vivo, C57BL6/J mice; details: 0.1 mg/kg caudal vein, plasma 24 hours after administration, PBS group = 100%
Experimental: (§1) The Factor VII (FVII) protein was measured according to the method described in Nature Biotechnology (2010) 28, 172-176. C57BL6/J mice were randomly grouped (n=3). A dispersion liquid of nucleic acid lipid particles was prepared by the same method as that in <Preparation of nucleic acid lipid particles>, except that FVII-siRNA having the sequence described in Molecular Therapy (2009) 17, p. 878 was used instead of Luc-siRNA. The dispersion liquid was administered to the caudal vein of the mice at a dosage of 0.1 mg/kg. For comparison, PBS at the same volume was administered to the caudal vein of the mice. Twenty four hours after the administration, blood was collected from the caudal vena cava, thereby obtaining plasma. The amount of FVII protein was quantified using the obtained plasma and a Biophen FVII assay kit (Aniara).
The FVII amount in the plasma sample of each individual in the PBS administration group was regarded as 100%, and the ratio of the FVII amount in the plasma sample of each individual to 100% was adopted as a measurement value.

[5] = Particle size of nucleic acid lipid particles (FVII-siRNA); format: physicochemical
Experimental: The compounds described in Table 2, L-α-distearoylphosphatidylcholine (trade name: COATSOME® MC-8080; NOF corporation), cholesterol (trade name: Choesterol HP; NIPPON FINE CHEMICAL CO., LTD.), and 1,2-dimyristoyl-rac-glycero-3-(methylpolyoxyethylene 2000) (hereinafter, called DMG-PEG2000) (trade name: SUNBRIGHT® GM-020; NOF corporation) were dissolved in ethanol at a molar ratio of 50/10/38.5/1.5 such that the total lipid concentration became 20 mmol/L, thereby obtaining an oil phase.
An aqueous nucleic acid solution obtained by dissolving 5 mg of Luc2-siRNA having the sequence described in Biomacromolecules (2013) 14, p. 3905 in 1 mL of sterile water was diluted with 10 mmol/L acetate buffer having a pH 4 such that the nucleic acid concentration became 19.7 μmol/L, thereby obtaining a water phase. Then, the water phase and the oil phase were mixed together by a micromixer (see JP5288254B) using a syringe pump such that the volume ratio of water phase:oil phase became 3:1 (final ratio of siRNA/lipid=339 (mol/mol)), and the mixed solution was diluted 2× with PBS, thereby obtaining a dispersion liquid of nucleic acid lipid particles. The dispersion liquid was dialyzed (Slide-A-Lyzer G2, MWCO: 10 kD, Thermo Fisher Scientific) using a phosphate buffered saline such that ethanol was removed, thereby obtaining nucleic acid lipid particles.
The particle size of the nucleic acid lipid particles was measured by the same method as that in <Preparation of lipid particles>.
as §1

[6] = Nucleic acid encapsulation rate of nucleic acid lipid particles (FVII-siRNA); format: physicochemical
Experimental: A 3 mol/L aqueous sodium acetate solution (30 μL) and 9 μL of glycogen were added to 60 μL of the lipid particles retaining nucleic acids, and then 1.5 mL of ethanol was added thereto such that only the nucleic acids were precipitated while the lipid was dissolved. Then, the supernatant was removed by centrifugation. After the precipitates were air-dried for 15 minutes or longer, water was added thereto such that the precipitates were redissolved, and the concentration thereof was measured using Nanodrop NF1000 (Thermo Fisher Scientific), thereby quantifying the total nucleic acid concentration.
The nucleic acid concentration was quantified using a Quant-iT RiboGreen RNA Assay Kit (Thermo Fisher Scientific) according to the protocol. First, a 20×TE buffer included in the above kit was diluted with water, thereby obtaining a 1×TE buffer. TE represents Tris/EDTA (ethylenediaminetetraacetic acid). In order to quantify only the nucleic acid in the outer water phase, the dispersion liquid of lipid particles retaining nucleic acids was diluted 10,000× with the 1×TE buffer.
The 10,000× diluted dispersion liquid of lipid particles (100 μL) was put in a 96-well plate, then 100 μL of a RiboGreen reagent (reagent included in the Quanti-iT Ribogreen RNA Assay Kit described above) diluted 2000× with the 1×TE buffer was added to a sample, and fluorescence (excitation wavelength: 485 nm, fluorescence wavelength: 535 nm) was measured using a plate reader Infinit EF200 (TECAN), thereby quantifying the nucleic acid concentration in the outer water phase.
By using the total nucleic acid concentration obtained through the above steps and the quantified nucleic acid concentration in the outer water phase, the nucleic acid encapsulation rate of the nucleic acid lipid particles was calculated according to the following Equation. Nucleic acid encapsulation rate (%)=(total nucleic acid concentration−nucleic acid concentration in outer water phase)/total nucleic acid concentration×100 The results are shown in Table 2.
as §1

Row | Compound | Particle size (nm) [1] | Nucleic acid encapsulation rate [2] | IC50 [3] | Relative amount of FVII protein (%) [4] | Particle size (nm) [5] | Nucleic acid encapsulation rate [6]
1 | CCCCC/C=C\C/C=C\CCCCCCCCC(CCCCCCCC/C=C\C/C=C\CCCCC)OC(=O)OCCN(C)CCN(CC)CC [Example 23, 2-((2-(Diethylamino)ethyl)(methyl)amino)ethyl((6Z,9Z,28Z,31Z)-heptatriaconta-6,9,28,31-tetraen-19-yl)carbonate] | 69.2 nm | 85% | 39 nM | 39% | 75.4 nm | 57%
2 | CCCCC/C=C\C/C=C\CCCCCCCCC(CCCCCCCC/C=C\C/C=C\CCCCC)OC(=O)OCCN(CC)CCN(C)C [Example 24, 2-((2-(Dimethylamino)ethyl)(ethyl)amino)ethyl((6Z,9Z,28Z,31Z)-heptatriaconta-6,9,28,31-tetraen-19-yl)carbonate] | 62.0 nm | 88% | 41 nM | 24% | 66.2 nm | 67%
3 | CCCCC/C=C\C/C=C\CCCCCCCCC(CCCCCCCC/C=C\C/C=C\CCCCC)OC(=O)OCCN(CC)CCN(CC)CC [Example 30, 2-((2-(Diethylamino)ethyl)(ethyl)amino)ethyl((6Z,9Z,28Z,31Z)-heptatriaconta-6,9,28,31-tetraen-19-yl)carbonate] | 69.8 nm | 78% | 24 nM | 5% | 73.6 nm | 88%
4 | CCCCC/C=C\C/C=C\CCCCCCCCC(CCCCCCCC/C=C\C/C=C\CCCCC)OC(=O)OCCN(CCC)CCN(C)C [Example 31, 2-((2-(Dimethylamino)ethyl)(propyl)amino)ethyl((6Z,9Z,28Z,31Z)-heptatriaconta-6,9,28,31-tetraen-19-yl)carbonate] | 67.9 nm | 78% | 38 nM | 14% | 73.5 nm | 80%
5 | CCCCCCCC(=O)OCCN(CCOC(=O)OC(CCCCCC)CCCC(=O)OCC(CCCC)CCCCCC)CCN(CC)CC (centres unmarked) [Example 108, 2-Butyloctyl 3-ethyl-12-hexyl-6-(2-(octanoyloxy)ethyl)-10-oxo-9,11-dioxa-3,6-diazahexadecan-16-oate] | 78.7 nm | 81% | – | 3% | 78.8 nm | 90%
6 | CCCCCCCCC(CCCCCC)COC(=O)CCCCCCCC(CCCCCC)OC(=O)OCCN(CCN(CC)CC)C(C)C (centres unmarked) [Example 117, 2-Hexyldecyl 3-ethyl-12-hexyl-6-isopropyl-10-oxo-9,11-dioxa-3,6-diazaicosan-20-oate] | 77.3 nm | 90% | – | 12% | 85.4 nm | 89%
7 | CCCCCCCCCC(CCCCCCCCC)COC(=O)CCCC(CCCCCC)OC(=O)OCCN(CCN(CC)CC)C(C)C (centres unmarked) [Example 124, 2-Nonylundecyl 3-ethyl-12-hexyl-6-isopropyl-10-oxo-9,11-dioxa-3,6-diazahexadecan-16-oate] | 68.3 nm | 69% | – | 8% | 73.4 nm | 84%
8 | CCCCCCCC(=O)OCCN(CCOC(=O)OC(CCCCCC)CCCCCCCCC(=O)OCCC(CCCCC)CCCCC)CCN(CC)CC (centres unmarked) [Example 125, 3-Pentyloctyl 3-ethyl-12-hexyl-6-(2-(octanoyloxy)ethyl)-10-oxo-9,11-dioxa-3,6-diazahenicosan-21-oate] | 73.8 nm | 76% | – | 5% | 77.8 nm | 80%
9 | CCCCCCCCC(=O)OCCN(CCOC(=O)OC(CCCCCC)CCCCCCCCC(=O)OCCC(CCCCC)CCCCC)CCN(CC)CC (centres unmarked) [Example 126, 3-Pentyloctyl 3-ethyl-12-hexyl-6-(2-(nonanoyloxy)ethyl)-10-oxo-9,11-dioxa-3,6-diazahenicosan-21-oate] | 66.8 nm | 75% | – | 9% | 74.2 nm | 85%
10 | CCCCCCCCC(=O)OCCN(CCOC(=O)OC(CCCCCC)CCCCCCCCC(=O)OCC(CCCCC)CCCCC)CCN(CC)CC (centres unmarked) [Example 130, 2-Pentylheptyl 3-ethyl-12-hexyl-6-(2-(nonanoyloxy)ethyl)-10-oxo-9,11-dioxa-3,6-diazahenicosan-21-oate] | 64.9 nm | 66% | – | 9% | 74.1 nm | 68%
11 | CCCCCCCC(CCCCCCC)COC(=O)CCCCCCCCC(CCCCCC)OC(=O)OCCN(CCN(CC)CC)C(C)C (centres unmarked) [Example 133, 2-Heptylnonyl 3-ethyl-12-hexyl-6-isopropyl-10-oxo-9,11-dioxa-3,6-diazahenicosan-21-oate] | 75.8 nm | 78% | – | 16% | 75.8 nm | 78%

— patent publication US12370143B2, “Compound or salt thereof and lipid particles” (FUJIFILM Corporation, priority 2018, dated 2025)
